Results from patent US10537545B2, “Ceramide derivatives as anticancer agents” (Rutgers, The State University of New Jersey, priority 2015, dated 2020).

How the values were obtained:
HELA [1] = conditions: reported in Andrianasolo et al., J. Nat. Prod. 2011, read-out: IC50, growth inhibition of HeLa (cervical cancer); cited from earlier work
MCF7 [2] = conditions: reported in Andrianasolo et al., J. Nat. Prod. 2011, read-out: IC50, growth inhibition of MCF7 (breast cancer); cited from earlier work
HELA [3] = assay: Cytotoxicity assay, HELA cancer cell line; assay type: cell-based; conditions: for CTRL HELA (growth relative to control): control = 1; for Growth HELA: control growth 0.55
Procedure: (§1) Cytotoxicity Assay. […] Cells were treated with varying concentrations of compounds. The IC50 were measured. […] In order to verify that assumption an LDH (Lactate Dehydrogenase) assay was performed.

MCF7 [4] = assay: Cytotoxicity assay, MCF7 cancer cell line; assay type: cell-based, human; conditions: for CTRL MCF7 (growth relative to control): control = 1; for Growth MCF7: control growth 0.7
Procedure: as §1

HDAC5 = HDAC5 (Homo sapiens, UniProt Q9UQL6); assay: HDAC inhibitor assay, HDAC5; assay type: biochemical; conditions: up to 50 or 100 μM
Excerpt: (§2) Compound VIII was subjected to enzymatic inhibition test against the class I (HDAC1, HDAC2, HDAC3 and HDAC8), the class II A (HDAC4, HDAC5, HDAC7 and HDAC9) and the class II B (HDAC6) enzymes. HDAC inhibitors Trichostatin A (TSA) and TMP269 (TMP) were used as reference compounds.

HDAC4 = HDAC4 (Homo sapiens, UniProt P56524); assay: HDAC inhibitor assay, HDAC4; assay type: biochemical; conditions: up to 50 or 100 μM
Excerpt: as §2

HDAC3 = HDAC3 (Homo sapiens, UniProt O15379); assay: HDAC inhibitor assay, HDAC3; assay type: biochemical; conditions: up to 50 or 100 μM
Excerpt: as §2

HDAC2 = HDAC2 (Homo sapiens, UniProt Q92769); assay: HDAC inhibitor assay, HDAC2; assay type: biochemical; conditions: up to 50 or 100 μM
Excerpt: as §2

HDAC7 = target: T1, HDAC7 (Homo sapiens, UniProt Q8WUI4); assay: HDAC inhibitor assay, HDAC7; assay type: biochemical; conditions: up to 50 or 100 μM
T1 sequence (Q8WUI4 1-952): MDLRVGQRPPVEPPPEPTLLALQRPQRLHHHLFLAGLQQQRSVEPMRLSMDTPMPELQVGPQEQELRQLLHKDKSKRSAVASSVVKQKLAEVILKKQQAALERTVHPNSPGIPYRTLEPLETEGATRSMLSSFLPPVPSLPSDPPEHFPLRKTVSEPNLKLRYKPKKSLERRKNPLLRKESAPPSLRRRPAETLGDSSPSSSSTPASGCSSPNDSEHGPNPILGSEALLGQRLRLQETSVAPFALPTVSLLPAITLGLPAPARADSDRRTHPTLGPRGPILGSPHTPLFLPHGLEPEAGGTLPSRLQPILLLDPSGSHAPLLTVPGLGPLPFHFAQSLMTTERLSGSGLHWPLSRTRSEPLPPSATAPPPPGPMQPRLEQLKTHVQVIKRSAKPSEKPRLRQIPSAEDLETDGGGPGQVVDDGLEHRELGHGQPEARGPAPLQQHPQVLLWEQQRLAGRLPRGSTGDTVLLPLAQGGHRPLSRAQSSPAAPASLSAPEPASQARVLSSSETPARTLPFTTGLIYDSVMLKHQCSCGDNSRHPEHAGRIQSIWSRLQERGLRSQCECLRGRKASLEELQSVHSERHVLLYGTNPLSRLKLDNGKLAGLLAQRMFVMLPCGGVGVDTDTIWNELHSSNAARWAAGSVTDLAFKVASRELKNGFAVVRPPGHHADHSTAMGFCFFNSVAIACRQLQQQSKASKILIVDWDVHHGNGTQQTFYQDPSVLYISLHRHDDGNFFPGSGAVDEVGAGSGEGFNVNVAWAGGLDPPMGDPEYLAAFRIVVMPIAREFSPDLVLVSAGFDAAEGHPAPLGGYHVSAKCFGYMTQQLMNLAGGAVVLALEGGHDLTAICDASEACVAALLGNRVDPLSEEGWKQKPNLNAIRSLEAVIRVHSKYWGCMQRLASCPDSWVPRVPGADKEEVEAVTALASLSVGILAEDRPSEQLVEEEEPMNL
Excerpt: as §2

HDAC6 = target: T2, HDAC6 (Homo sapiens, UniProt Q9UBN7); assay: HDAC inhibitor assay, HDAC6; assay type: biochemical; conditions: class II B HDAC6; read-out: IC50, inhibition of HDAC6
T2 sequence (Q9UBN7 1-1215): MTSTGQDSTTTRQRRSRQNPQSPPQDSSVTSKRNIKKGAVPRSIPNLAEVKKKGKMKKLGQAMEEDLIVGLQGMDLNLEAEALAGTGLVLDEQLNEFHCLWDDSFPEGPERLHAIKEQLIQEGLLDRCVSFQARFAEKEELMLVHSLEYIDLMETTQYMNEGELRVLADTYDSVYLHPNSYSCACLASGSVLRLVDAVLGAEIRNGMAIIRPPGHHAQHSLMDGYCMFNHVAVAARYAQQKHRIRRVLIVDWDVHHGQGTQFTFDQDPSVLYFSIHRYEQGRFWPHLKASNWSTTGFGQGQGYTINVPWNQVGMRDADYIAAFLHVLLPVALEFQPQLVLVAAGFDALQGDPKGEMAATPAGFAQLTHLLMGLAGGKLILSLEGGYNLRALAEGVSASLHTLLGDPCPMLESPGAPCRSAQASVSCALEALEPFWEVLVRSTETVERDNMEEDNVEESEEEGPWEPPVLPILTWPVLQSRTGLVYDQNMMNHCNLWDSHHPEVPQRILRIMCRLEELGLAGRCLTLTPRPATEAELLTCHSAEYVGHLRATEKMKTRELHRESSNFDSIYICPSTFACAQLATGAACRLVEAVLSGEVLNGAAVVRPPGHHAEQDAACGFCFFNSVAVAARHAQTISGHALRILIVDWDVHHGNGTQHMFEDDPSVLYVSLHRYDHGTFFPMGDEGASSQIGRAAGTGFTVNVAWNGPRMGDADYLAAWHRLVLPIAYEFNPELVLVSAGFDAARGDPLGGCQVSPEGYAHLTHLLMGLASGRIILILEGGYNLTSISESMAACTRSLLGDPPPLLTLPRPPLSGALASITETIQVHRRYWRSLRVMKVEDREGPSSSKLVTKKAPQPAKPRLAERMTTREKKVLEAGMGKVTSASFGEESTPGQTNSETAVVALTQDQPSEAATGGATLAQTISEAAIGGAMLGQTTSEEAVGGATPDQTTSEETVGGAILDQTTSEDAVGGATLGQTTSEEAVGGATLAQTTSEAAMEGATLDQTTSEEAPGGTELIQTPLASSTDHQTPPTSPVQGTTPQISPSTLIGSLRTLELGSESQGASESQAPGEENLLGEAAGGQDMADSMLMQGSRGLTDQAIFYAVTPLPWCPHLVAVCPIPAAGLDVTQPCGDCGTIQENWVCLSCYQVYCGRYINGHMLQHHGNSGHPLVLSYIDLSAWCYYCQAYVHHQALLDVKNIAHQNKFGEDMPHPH
Excerpt: as §2

HDAC9 = HDAC9 (Homo sapiens, UniProt Q9UKV0); assay: HDAC inhibitor assay, HDAC9; assay type: biochemical; conditions: up to 50 or 100 μM
Excerpt: as §2

HDAC1 = HDAC1 (Homo sapiens, UniProt Q13547); assay: HDAC inhibitor assay, HDAC1; assay type: biochemical; conditions: up to 50 or 100 μM
Excerpt: as §2

HDAC8 = target: T3, HDAC8 (Homo sapiens, UniProt Q9BY41); assay: HDAC inhibitor assay, HDAC8; assay type: biochemical; conditions: up to 50 or 100 μM
T3 sequence (Q9BY41 1-377): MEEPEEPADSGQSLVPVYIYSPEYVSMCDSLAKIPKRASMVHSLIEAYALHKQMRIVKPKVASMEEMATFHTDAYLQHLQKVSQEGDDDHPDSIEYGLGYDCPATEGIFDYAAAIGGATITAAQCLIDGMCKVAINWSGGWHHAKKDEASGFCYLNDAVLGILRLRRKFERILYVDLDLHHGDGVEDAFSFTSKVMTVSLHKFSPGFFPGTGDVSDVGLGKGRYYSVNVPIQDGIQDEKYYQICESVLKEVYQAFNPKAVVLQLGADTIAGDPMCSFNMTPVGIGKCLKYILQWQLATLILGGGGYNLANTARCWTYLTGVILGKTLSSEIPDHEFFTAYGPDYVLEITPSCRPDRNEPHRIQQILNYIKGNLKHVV
Excerpt: as §2

Sequence of HDAC4 (P56524 whole entry, species assumed): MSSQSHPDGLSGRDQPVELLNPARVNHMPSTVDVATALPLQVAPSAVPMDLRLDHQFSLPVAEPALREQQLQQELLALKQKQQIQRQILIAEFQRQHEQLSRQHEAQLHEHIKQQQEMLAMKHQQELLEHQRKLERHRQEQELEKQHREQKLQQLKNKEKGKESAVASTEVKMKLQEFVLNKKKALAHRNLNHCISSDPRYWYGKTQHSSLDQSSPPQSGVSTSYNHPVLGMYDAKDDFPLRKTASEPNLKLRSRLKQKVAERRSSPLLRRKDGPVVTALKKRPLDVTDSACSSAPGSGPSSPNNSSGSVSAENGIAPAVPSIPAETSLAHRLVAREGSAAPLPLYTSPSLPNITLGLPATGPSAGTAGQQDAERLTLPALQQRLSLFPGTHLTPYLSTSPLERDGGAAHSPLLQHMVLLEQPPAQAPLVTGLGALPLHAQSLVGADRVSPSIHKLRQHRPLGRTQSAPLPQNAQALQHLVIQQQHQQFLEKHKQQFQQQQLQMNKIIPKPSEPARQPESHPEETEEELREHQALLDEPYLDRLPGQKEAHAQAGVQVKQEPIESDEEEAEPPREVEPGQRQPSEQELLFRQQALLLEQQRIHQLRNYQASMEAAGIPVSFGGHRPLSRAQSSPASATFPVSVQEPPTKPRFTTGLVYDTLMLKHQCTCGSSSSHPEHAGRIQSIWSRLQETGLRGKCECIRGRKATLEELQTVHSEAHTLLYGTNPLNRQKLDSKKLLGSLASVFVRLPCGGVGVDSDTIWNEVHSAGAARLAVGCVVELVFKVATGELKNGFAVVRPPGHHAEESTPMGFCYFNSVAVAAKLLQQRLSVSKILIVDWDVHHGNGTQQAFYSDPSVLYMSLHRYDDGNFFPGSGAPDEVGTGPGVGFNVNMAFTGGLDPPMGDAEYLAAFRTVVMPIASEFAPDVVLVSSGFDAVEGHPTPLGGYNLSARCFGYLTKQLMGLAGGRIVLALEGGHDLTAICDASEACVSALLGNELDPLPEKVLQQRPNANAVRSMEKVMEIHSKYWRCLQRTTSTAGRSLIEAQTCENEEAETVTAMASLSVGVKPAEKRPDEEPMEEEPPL
Sequence of HDAC1 (Q13547 whole entry, species assumed): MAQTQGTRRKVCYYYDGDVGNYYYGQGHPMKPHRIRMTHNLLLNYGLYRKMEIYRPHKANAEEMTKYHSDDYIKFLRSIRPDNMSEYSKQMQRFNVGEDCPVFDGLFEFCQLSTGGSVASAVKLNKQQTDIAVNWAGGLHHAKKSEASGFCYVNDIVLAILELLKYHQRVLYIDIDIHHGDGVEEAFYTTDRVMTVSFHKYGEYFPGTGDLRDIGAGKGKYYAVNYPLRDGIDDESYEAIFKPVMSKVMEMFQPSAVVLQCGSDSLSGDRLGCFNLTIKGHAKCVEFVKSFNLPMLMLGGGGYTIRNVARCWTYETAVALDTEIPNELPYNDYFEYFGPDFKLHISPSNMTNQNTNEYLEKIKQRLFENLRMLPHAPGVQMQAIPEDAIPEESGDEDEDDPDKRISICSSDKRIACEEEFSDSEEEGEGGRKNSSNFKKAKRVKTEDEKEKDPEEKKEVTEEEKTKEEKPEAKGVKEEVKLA
Sequence of HDAC2 (Q92769 whole entry, species assumed): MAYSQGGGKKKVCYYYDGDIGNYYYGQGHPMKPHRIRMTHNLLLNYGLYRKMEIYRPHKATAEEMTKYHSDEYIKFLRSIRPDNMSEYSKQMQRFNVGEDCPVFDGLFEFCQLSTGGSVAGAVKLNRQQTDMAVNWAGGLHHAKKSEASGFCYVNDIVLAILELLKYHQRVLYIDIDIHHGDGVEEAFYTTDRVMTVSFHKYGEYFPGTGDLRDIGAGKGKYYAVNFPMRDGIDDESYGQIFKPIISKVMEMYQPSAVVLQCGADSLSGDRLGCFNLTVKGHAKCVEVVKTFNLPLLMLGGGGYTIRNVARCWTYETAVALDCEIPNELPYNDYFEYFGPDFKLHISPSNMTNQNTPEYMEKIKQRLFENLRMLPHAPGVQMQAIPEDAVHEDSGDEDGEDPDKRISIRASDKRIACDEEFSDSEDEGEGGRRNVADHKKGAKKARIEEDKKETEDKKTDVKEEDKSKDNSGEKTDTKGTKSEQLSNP
Sequence of HDAC9 (Q9UKV0 whole entry, species assumed): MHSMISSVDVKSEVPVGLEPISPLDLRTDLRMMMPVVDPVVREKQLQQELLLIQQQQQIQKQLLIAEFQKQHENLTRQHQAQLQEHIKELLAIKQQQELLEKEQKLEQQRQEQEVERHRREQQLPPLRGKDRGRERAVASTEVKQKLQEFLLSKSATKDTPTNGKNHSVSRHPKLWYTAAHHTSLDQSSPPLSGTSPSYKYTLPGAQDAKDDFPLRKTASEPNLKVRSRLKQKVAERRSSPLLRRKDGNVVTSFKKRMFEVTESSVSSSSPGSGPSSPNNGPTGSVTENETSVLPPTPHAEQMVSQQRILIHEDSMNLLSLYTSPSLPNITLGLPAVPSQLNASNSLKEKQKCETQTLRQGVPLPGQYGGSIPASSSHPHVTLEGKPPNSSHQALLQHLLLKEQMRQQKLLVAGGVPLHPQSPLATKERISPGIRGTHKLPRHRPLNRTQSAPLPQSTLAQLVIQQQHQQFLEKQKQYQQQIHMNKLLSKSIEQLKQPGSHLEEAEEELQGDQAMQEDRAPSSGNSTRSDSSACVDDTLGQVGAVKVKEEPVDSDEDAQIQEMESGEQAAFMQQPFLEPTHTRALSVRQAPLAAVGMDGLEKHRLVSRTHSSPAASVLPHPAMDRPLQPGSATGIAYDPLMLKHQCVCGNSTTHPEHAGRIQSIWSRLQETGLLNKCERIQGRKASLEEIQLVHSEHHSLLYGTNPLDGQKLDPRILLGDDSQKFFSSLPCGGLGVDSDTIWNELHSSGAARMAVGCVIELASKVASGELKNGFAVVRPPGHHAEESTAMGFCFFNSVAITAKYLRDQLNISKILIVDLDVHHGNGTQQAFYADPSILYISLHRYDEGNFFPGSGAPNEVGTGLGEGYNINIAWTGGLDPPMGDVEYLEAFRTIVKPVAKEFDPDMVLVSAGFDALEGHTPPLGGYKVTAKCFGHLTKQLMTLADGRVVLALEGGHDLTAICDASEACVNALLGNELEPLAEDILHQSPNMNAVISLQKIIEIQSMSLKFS
Sequence of HDAC5 (Q9UQL6 whole entry, species assumed): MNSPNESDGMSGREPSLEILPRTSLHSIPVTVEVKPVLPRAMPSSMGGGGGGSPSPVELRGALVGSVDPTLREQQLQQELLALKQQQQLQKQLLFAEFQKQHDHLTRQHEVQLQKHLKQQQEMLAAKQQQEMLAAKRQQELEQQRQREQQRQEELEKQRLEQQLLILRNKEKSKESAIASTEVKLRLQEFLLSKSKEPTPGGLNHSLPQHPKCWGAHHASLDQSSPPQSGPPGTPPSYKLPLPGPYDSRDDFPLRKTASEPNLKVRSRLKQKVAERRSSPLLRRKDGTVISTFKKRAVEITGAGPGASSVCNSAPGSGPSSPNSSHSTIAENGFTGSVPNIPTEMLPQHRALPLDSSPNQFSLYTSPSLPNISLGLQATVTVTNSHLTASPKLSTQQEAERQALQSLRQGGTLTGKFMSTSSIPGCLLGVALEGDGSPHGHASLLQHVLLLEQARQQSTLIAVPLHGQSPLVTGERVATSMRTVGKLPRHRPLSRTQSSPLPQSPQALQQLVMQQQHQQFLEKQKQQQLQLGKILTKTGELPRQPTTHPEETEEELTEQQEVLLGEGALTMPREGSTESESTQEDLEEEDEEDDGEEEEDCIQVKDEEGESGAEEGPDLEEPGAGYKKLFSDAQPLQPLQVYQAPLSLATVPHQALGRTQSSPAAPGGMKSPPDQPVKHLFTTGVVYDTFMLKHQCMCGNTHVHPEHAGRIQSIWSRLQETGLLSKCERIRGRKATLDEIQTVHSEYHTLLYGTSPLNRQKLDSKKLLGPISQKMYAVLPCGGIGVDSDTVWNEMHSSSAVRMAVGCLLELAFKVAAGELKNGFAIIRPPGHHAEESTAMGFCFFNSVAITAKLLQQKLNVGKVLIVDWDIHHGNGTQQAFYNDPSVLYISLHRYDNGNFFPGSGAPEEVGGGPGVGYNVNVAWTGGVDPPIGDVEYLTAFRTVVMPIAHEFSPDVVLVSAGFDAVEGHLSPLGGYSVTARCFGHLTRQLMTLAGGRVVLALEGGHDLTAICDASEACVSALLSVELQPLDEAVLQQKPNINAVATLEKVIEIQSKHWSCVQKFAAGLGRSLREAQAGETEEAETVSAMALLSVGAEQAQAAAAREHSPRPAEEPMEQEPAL
Sequence of HDAC3 (O15379 whole entry, species assumed): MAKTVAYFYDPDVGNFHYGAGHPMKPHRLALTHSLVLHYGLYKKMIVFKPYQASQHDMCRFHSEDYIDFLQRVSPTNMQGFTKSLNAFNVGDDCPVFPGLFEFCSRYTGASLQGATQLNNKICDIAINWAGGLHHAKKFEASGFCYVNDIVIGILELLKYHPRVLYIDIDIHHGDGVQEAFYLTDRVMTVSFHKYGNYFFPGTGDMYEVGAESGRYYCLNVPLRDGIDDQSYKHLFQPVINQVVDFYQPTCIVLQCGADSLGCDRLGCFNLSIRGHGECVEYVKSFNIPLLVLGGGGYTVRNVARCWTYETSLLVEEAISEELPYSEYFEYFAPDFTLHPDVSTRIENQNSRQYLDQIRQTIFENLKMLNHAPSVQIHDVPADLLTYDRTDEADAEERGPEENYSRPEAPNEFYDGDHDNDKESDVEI
Sequence of HDAC3 (Q9Y618 395-489 partner limits assumed, species assumed): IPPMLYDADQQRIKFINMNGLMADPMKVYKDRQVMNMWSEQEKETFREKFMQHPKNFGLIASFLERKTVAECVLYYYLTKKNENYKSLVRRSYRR

| Inhibition of HDAC5 (HDAC5) | Inhibition of HDAC4 (HDAC4) | Inhibition of HDAC3 (HDAC3) | Inhibition of HDAC2 (HDAC2) | Inhibition of HDAC7 (HDAC7) | IC50 (HDAC6) [nM] | Inhibition of HDAC9 (HDAC9) | Inhibition of HDAC1 (HDAC1) | Inhibition of HDAC8 (HDAC8) | Compound | IC50 (HELA [1]) [nM] | IC50 (MCF7 [2]) [nM] | CTRL HELA (growth relative to control) (HELA [3]; 72 μg*0.01/ml) | Growth HELA (HELA [3]; 72 μg*0.01/ml) | CTRL HELA (growth relative to control) (HELA [3]; 360 μg*0.01/ml) | Growth HELA (HELA [3]; 360 μg*0.01/ml) | CTRL MCF7 (growth relative to control) (MCF7 [4]; 72 μg*0.01/ml) | Growth MCF7 (MCF7 [4]; 72 μg*0.01/ml) | CTRL MCF7 (growth relative to control) (MCF7 [4]; 360 μg*0.01/ml) | Growth MCF7 (MCF7 [4]; 360 μg*0.01/ml) |
| --- | --- | --- | --- | --- | --- | --- | --- | --- | --- | --- | --- | --- | --- | --- | --- | --- | --- | --- | --- |
|  |  |  |  |  |  |  |  |  | CCC/C=C\C/C=C\C/C=C\CCCCC(=O)O[C@@H](COC(=O)CCCCCCCCCCCCCCC)[C@H](O)[C@H](CO)NC(=O)CCCCCCCCCCC (relative stereo) [compound 1] | 400 | 100 | 0.78 | 0.43 | 0.56 | 0.31 | 0.42 | 0.29 | 0.15 | 0.11 |
|  |  |  |  |  |  |  |  |  | CCC/C=C\C/C=C\CCC(=O)O[C@@H](COC(=O)CCCCCCCCCCCCC)[C@H](O)[C@H](CO)NC(=O)CCCCCCCCCCC [compound 2] | 500 | 200 |  |  |  |  |  |  |  |  |
| did not significantly inhibit | did not significantly inhibit | did not significantly inhibit | did not significantly inhibit | did not significantly inhibit | ~80000 | did not significantly inhibit | did not significantly inhibit | did not significantly inhibit | C=C1CC[C@@H]2O[C@@]2(C)CC[C@H](/C(=C/CC2OC2(C)C)CO)[C@H]1C(=O)OC (stereo partly drawn) [compound VIII] |  |  |  |  |  |  |  |  |  |  |
